According to patent US10035819B2, “PPAR agonists and methods of use thereof” (The Salk Institute for Biological Studies, priority 2014, dated 2018):
pEC50: −log10 of the molar value. Read-outs that look alike come from different tables or passages of the source.

What was measured:
Human PPARδ LBD = target: T1, Human PPARδ LBD (Homo sapiens, UniProt Q03181); assay: PPARδ activity screen (GAL4-PPARδ LBD luciferase transactivation in CV-1 cells); format: cell-based; settings: for pEC50: read-out: EC50
T1 construct: (PPARδ amino acid 128 to C-terminus); expressed in transfected cells; host or cells: CV-1 cells
T1 sequence (Q03181 128-441 limits assumed): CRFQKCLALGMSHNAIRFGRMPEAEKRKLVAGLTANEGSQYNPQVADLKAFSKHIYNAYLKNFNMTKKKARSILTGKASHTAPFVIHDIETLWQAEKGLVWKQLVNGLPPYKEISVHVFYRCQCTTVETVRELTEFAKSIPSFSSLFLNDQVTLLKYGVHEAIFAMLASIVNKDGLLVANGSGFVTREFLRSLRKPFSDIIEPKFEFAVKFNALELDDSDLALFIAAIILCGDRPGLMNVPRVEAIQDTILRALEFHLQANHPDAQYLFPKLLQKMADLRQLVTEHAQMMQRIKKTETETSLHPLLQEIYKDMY
Method: Cell Culture and Transfection: CV-1 cells were grown in DMEM+10% charcoal stripped FCS. Cells were seeded into 384-well plates the day before transfection to give a confluency of 50-80% at transfection. A total of […] containing 0.64 micrograms pCMX-PPARDelta LBD, 0.1 micrograms pCMXβGal, 0.08 micrograms pGLMH2004 reporter and 0.02 micrograms pCMX empty vector was transfected per well using FuGene transfection reagent according to the manufacturer's instructions (Roche).
Plasmids: Human PPARδ was used to PCR amplify the PPARδ LBD. […] Ensuing fusions were verified by sequencing.
Compounds: All compounds were dissolved in DMSO and diluted 1:1000 upon addition to the cells. Compounds were tested in quadruple in concentrations ranging from 0.001 to 100 μM. […] Each compound was tested in at least two separate experiments.
Luciferase assay: Medium including test compound was aspirated and washed with PBS. 50 μl PBS including 1 mM Mg++ and Ca++ were then added to each well. The luciferase assay was performed using the LucLite kit according to the manufacturer's instructions (Packard Instruments). Light emission was quantified by counting on a Perkin Elmer Envision reader. […] Beta-galactosidase assays were performed in the microwell plates using a kit from Promega and read in a Perkin Elmer Envision reader. The beta-galactosidase data were used to normalize (transfection efficiency, cell growth etc.) the luciferase data.
Statistical Methods: The activity of a compound is calculated as fold induction compared to an untreated sample. […] EC50 values were calculated via non-linear regression using GraphPad PRISM (GraphPad Software, San Diego, Calif.).

PPARδ = target: T2, PPARδ (Homo sapiens, UniProt Q03181); assay: Nuclear Hormone Receptor (NHR) protein interaction assay (PathHunter), agonist format; format: cell-based; settings: for EC50: PathHunter NHR cell line, agonist format, read-out: NHR protein interaction assay, EC50 (nM) for PPARδ
T2 construct: expressed in transfected cells; host or cells: PathHunter NHR cell lines
T2 sequence (Q03181 1-441): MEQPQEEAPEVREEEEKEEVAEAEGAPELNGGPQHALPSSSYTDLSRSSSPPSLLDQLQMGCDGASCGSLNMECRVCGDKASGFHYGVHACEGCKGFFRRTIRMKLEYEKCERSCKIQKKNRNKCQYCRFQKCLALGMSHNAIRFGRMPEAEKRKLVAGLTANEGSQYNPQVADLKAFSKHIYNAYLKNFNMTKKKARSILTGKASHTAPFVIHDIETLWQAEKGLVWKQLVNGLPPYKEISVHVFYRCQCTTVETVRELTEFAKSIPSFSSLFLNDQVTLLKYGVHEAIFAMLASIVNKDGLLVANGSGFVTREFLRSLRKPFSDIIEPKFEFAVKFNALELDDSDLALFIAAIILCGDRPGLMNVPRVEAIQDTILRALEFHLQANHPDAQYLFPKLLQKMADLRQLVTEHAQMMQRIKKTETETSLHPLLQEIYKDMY
Method: • Cell Handling: PathHunter NHR cell lines were expanded from freezer stocks according to standard procedures. Cells were seeded in a total volume of 20 μL into white walled, 384-well microplates and incubated at 37° C. for the appropriate time prior to testing. Assay media contained charcoal-dextran filtered serum to reduce the level of hormones present. • Agonist Format: For agonist determination, cells were incubated with sample to induce response. Intermediate dilution of sample stocks was performed to generate 5× sample in assay buffer. 5 μL of 5× sample was added to cells and incubated at 37° C. or room temperature for 3-16 hours. Final assay vehicle concentration was 1%. • Antagonist Format: For antagonist determination, cells were pre-incubated with antagonist followed by agonist challenge at the EC80 concentration. Intermediate dilution of sample stocks was performed to generate 5× sample in assay buffer. 5 μL of 5× sample was added to cells and incubated at 37° C. or room temperature for 60 minutes. Vehicle concentration was 1%. […] Microplates were read following signal generation with a PerkinElmer Envision™ instrument for chemiluminescent signal detection. • Data Analysis: Compound activity was analyzed using CBIS data analysis suite (ChemInnovation, CA). For agonist mode assays, percentage activity was calculated using the following formula: % Activity=100%×(mean RLU of test sample−mean RLU of vehicle control)/(mean MAX control ligand−mean RLU of vehicle control).
For antagonist mode assays, percentage inhibition was calculated using the following formula: % Inhibition=100%×(1−(mean RLU of test sample−mean RLU of vehicle control)/(mean RLU of EC80 control−mean RLU of vehicle control)). Note that for select assays, the ligand response produces a decrease in receptor activity (inverse agonist with a constitutively active target). For those assays inverse agonist activity was calculated using the following formula: % Inverse Agonist Activity=100%×((mean RLU of vehicle control−mean RLU of test sample)/(mean RLU of vehicle control−mean RLU of MAX control)).

[1] = EC50 nM, Table 1, CV-1 cells, GAL4-PPARδ LBD luciferase reporter, compound 24 h
[2] = Table 1, CV-1 cells, GAL4-PPARδ LBD luciferase reporter, compound 24 h
[3] = Table 15, read-out: PPARd, EC50 (nM) (from Salk)

SMILES | EC50 (Human PPARδ LBD; [1]) [nM] | pEC50 (Human PPARδ LBD; [2]) | other results
O=C(O)CCCCCOc1ccccc1CN(C(=O)c1ccc(-c2ccc(F)cc2)cc1)C1CC1 [compound 83] | 364 | – | –
O=C(O)CCCCCOc1ccccc1CN(C(=O)c1ccc(-c2ccncc2)cc1)C1CCCC1 [compound 67] | – | 5.83 | –
O=C(O)CCCCCOc1ccccc1CN(C(=O)c1ccc(-c2ccccc2)cc1)C1CC1 [compound 8] | 115 | – | –
O=C(O)CCCCCOc1ccccc1CN(C(=O)c1ccc(-c2ccccc2)cc1)C1CCCC1 [compound 65] | 405 | – | –
O=C(O)CCCCCOc1ccccc1CN(C(=O)c1ccc(-c2cn[nH]c2)cc1)C1CCCC1 [compound 68] | – | 6.22 | –
O=C(O)CCCCCOc1ccccc1CN(C(=O)c1ccc(-c2cn[nH]c2)cc1)C1CC1 [compound 11] | – | 5.67 | –
CCCc1ccc(-c2ccc(C(=O)N(Cc3ccccc3OCCCCCC(=O)O)C3CC3)cc2)cc1 [compound 93] | 1340 | – | –
CC(C)N(Cc1ccccc1OCCCCCC(=O)O)C(=O)c1ccc(-c2ccncc2)cc1 [compound 59] | – | 5.54 | –
Cc1ccc(C)c(-c2ccc(C(=O)N(Cc3ccccc3OCCCCCC(=O)O)C3CC3)cc2)c1 [compound 87] | 1150 | – | –
CCC(C)N(Cc1ccccc1OCCCCCC(=O)O)C(=O)c1ccc(-c2ccncc2)cc1 (centres unmarked) [compound 35] | 6400 | – | –
CC(C)N(Cc1ccccc1OCCCCCC(=O)O)C(=O)c1ccc(-c2ccccc2)cc1 [compound 57] | 60 | – | EC50 (Human PPARδ LBD; PPARd, EC50 (nM) (from Salk), Table 15): 42 nM; pEC50 (PPARδ): 7.59
O=C(O)CCCCCOc1ccccc1CN(C(=O)c1ccc(-c2ccsc2)cc1)C1CC1 [compound 15] | – | 7.23 | –
Cc1cc(C)cc(-c2ccc(C(=O)N(Cc3ccccc3OCCCCCC(=O)O)C3CC3)cc2)c1 [compound 89] | 1760 | – | –
CC(C)N(Cc1ccccc1OCCCCCC(=O)O)C(=O)c1ccc(-c2ccsc2)cc1 [compound 64] | – | 7.76 | EC50 (Human PPARδ LBD; [3]): 17.2 nM; EC50 (PPARδ): 8.02 nM
CC(C)N(Cc1ccccc1OCCCCCC(=O)O)C(=O)c1ccc(-c2cccnc2)cc1 [compound 58] | 1240 | – | –
O=C(O)CCCCCOc1ccccc1CN(C(=O)c1ccc(-c2ccccc2C(F)(F)F)cc1)C1CC1 [compound 90] | 1300 | – | –
O=C(O)CCCCCOc1ccccc1CN(C(=O)c1ccc(-c2ccoc2)cc1)C1CC1 [compound 13] | – | 6.67 | –
O=C(O)CCCCCOc1ccccc1CN(C(=O)c1ccc(-c2cccs2)cc1)C1CCCC1 [compound 71] | – | 6.12 | –
CC(C)N(Cc1ccccc1OCCCCCC(=O)O)C(=O)c1ccc(-c2cccs2)cc1 [compound 63] | – | – | pEC50 (PPARδ): 8.08
Cc1ccc(-c2ccc(C(=O)N(Cc3ccccc3OCCCCCC(=O)O)C3CC3)cc2)cc1 [compound 77] | 372 | – | –
Cc1cccc(-c2ccc(C(=O)N(Cc3ccccc3OCCCCCC(=O)O)C3CC3)cc2)c1C [compound 86] | 1300 | – | –
COc1ccc(-c2ccc(C(=O)N(Cc3ccccc3OCCCCCC(=O)O)C3CC3)cc2)cc1 [compound 80] | 439 | – | –
CC(C)N(Cc1ccccc1OCCCCCC(=O)O)C(=O)c1ccc(-c2ccoc2)cc1 [compound 62] | – | 7.21 | EC50 (Human PPARδ LBD; [3]): 61 nM; EC50 (PPARδ): 36.8 nM
CCC(C)N(Cc1ccccc1OCCCCCC(=O)O)C(=O)c1ccc(-c2cn[nH]c2)cc1 (centres unmarked) [compound 36] | 15400 | – | –

SMILES | EC50 (Human PPARδ LBD; [1]) [nM] | pEC50 (Human PPARδ LBD; [2]) | other results
O=C(O)CCCCCOc1ccccc1CN(C(=O)c1ccc(-c2ccc(C(F)(F)F)cc2)cc1)C1CC1 [compound 92] | 1760 | – | –
O=C(O)CCCCCOc1ccccc1CN(C(=O)c1ccc(-c2cccnc2)cc1)C1CC1 [compound 9] | – | 5.71 | –
COc1cccc(-c2ccc(C(=O)N(Cc3ccccc3OCCCCCC(=O)O)C3CC3)cc2)c1 [compound 79] | 301 | – | –
O=C(O)CCCCCOc1ccccc1CN(C(=O)c1ccc(-c2ccsc2)cc1)C1CCCC1 [compound 72] | – | 7.53 | –
COc1ccccc1-c1ccc(C(=O)N(Cc2ccccc2OCCCCCC(=O)O)C2CC2)cc1 [compound 78] | 1870 | – | –
O=C(O)CCCCCOc1ccccc1CN(C(=O)c1ccc(-c2cccc(F)c2)cc1)C1CC1 [compound 82] | 150 | – | –
O=C(O)CCCCCOc1ccccc1CN(C(=O)c1ccc(-c2ccco2)cc1)C1CCCC1 [compound 69] | – | 7.29 | –
CC(C)N(Cc1ccccc1OCCCCCC(=O)O)C(=O)c1ccc(-c2ccccc2)cc1 [compound 1] | 42 | – | –
O=C(O)CCCCCOc1ccccc1CN(C(=O)c1ccc(-c2cccnc2)cc1)C1CCCC1 [compound 66] | – | 6.10 | –
CCC(C)N(Cc1ccccc1OCCCCCC(=O)O)C(=O)c1ccc(-c2ccoc2)cc1 (centres unmarked) [compound 38] | 290 | – | –
O=C(O)CCCCCOc1ccccc1CN(C(=O)c1ccc(-c2cccs2)cc1)C1CC1 [compound 14] | 1800 | – | –
CCC(C)N(Cc1ccccc1OCCCCCC(=O)O)C(=O)c1ccc(-c2cccnc2)cc1 (centres unmarked) [compound 34] | 5140 | – | –
CCC(C)N(Cc1ccccc1OCCCCCC(=O)O)C(=O)c1ccc(-c2ccsc2)cc1 (centres unmarked) [compound 40] | 179 | – | –
CCC(C)N(Cc1ccccc1OCCCCCC(=O)O)C(=O)c1ccc(Br)cc1 (centres unmarked) [compound 32] | 611 | – | –
O=C(O)CCCCCOc1ccccc1CN(C(=O)c1ccc(-c2ccoc2)cc1)C1CCCC1 [compound 70] | – | 6.90 | –
Cc1ccccc1-c1ccc(C(=O)N(Cc2ccccc2OCCCCCC(=O)O)C2CC2)cc1 [compound 75] | 1190 | – | –
O=C(O)CCCCCOc1ccccc1CN(C(=O)c1ccc(-c2cccc(C(F)(F)F)c2)cc1)C1CC1 [compound 91] | 1150 | – | –
O=C(O)CCCCCOc1ccccc1CN(C(=O)c1ccc(-c2ccccc2F)cc1)C1CC1 [compound 81] | 597 | – | –
CCC(C)N(Cc1ccccc1OCCCCCC(=O)O)C(=O)c1ccc(-c2cccs2)cc1 (centres unmarked) [compound 39] | 2100 | – | –
CCc1ccccc1-c1ccc(C(=O)N(Cc2ccccc2OCCCCCC(=O)O)C2CC2)cc1 [compound 84] | 2500 | – | –
CC(C)N(Cc1ccccc1OCCCCCC(=O)O)C(=O)c1ccc(-c2cn[nH]c2)cc1 [compound 60] | – | 6.15 | –
Cc1cccc(-c2ccc(C(=O)N(Cc3ccccc3OCCCCCC(=O)O)C3CC3)cc2)c1 [compound 76] | 318 | – | –
CCC(C)N(Cc1ccccc1OCCCCCC(=O)O)C(=O)c1ccc(-c2ccccc2)cc1 (centres unmarked) [compound 33] | 954 | – | –
